The text below walks through data of patent US10280197B2, “Discovery of the first selective C5A receptor 2 (C5L2/C5AR2) ligands” (The Regents of the University of California, priority 2015, dated 2019).

One test has as its target C5a2 (Homo sapiens, UniProt Q9P296). As to the kind of experiment: BRET C5a2-β-arrestin 2 recruitment assay in HEK293 cells. Conditions: for efficacy for β-arrestin 2 recruitment relative to affinity for C5a2: EC50 versus Ki; for EC50: calculated at ~40 min after ligand addition; for type of activity for recruitment of β-arrestin 2 via C5a2: compared to C5a. More on the design: expressed in transfected cells; host or cells: HEK293 (transient). The format is cell-based. The procedure: (§1) Assays were performed as a ligand-induced BRET experiment similar to previously described^17, 31, 49. In brief, HEK293 cells were transiently transfected with either C5a1-Rluc8 and β-arrestin 2-Venus or C5a2-Venus and β-arrestin 2-Rluc8 or C5a1-Rluc8 and C5a2-Venus in a 100-mm dish. 24 h after transfection cells were collected and transferred to a 96-well white microplate (Corning, N.Y., USA) in phenol-red free DMEM containing 5% FBS and 25 mM HEPES (Life Technologies). Cells were allowed to settle for 24 h and then were incubated with 30 μM Enduren (Promega, Madison, Wis., USA) for 2 h at 37° C. and 5% CO2 to ensure that the substrate had reached equilibrium. Following incubation BRET baseline measurements were taken for 15 min then ligands were added to plate and BRET measurements were taken for a further 1 h at 37° C. using a POLARstar optima microplate reader (BMG Labtech, Ortenberg, Germany). Filtered light emissions were sequentially measured for 1 s in each of the following windows 460-490 nm and 520-550 nm, both before and following ligand addition. The ligand-induced BRET ratio was calculated by subtracting the ratio of 520-550 nm emission over the 460-490 nm emission for a vehicle-treated sample from a ligand-treated sample of the same aliquot of cells in triplicate. The BRET ratio was calculated by subtracting the ratio of 520-550 nm emission over the 460-490 nm emission for a cell sample containing the C5a1-Rluc8 or β-arrestin 2-Rluc8 construct from a cell sample containing both the C5a1-Rluc8 and β-arrestin 2-Venus or C5a2-Venus and β-arrestin 2-Rluc8 or C5a1-Rluc8 and C5a2-Venus constructs. Peptides were also tested for ligand-induced β-arrestin 2 recruitment at 100 μM using DiscoveRx PathHunter kits for human C5a1 and C5a2 (DiscoveRx Corporation. Birmingham, UK), according to the manufacturer's instructions.

Another test has as its target T1, C5a1-C5a2 heteromer (Homo sapiens, UniProt P21730+Q9P296).
T1 construct: expressed in transfected cells; host or cells: HEK293 (transient)
The test is described as follows: BRET ligand-induced heteromer formation between C5a1 and C5a2. The format is cell-based. The conditions noted are these: P32 or P59 100 μM. The method, then:
as §1, with “The BRET ratio was calculated by subtracting the ratio of 520-550 nm emission over the 460-490 nm emission for a cell sample containing the C5a1-Rluc8 or β-arrestin 2-Rluc8 construct from a cell sample containing both the C5a1-Rluc8 and β-arrestin 2-Venus or C5a2-Venus and β-arrestin 2-Rluc8 or C5a1-Rluc8 and C5a2-Venus constructs. Peptides were also tested for ligand-induced β-arrestin 2 recruitment at 100 μM using DiscoveRx PathHunter kits for human C5a1 and C5a2 (DiscoveRx Corporation. Birmingham, UK), according to the manufacturer's instructions.” left out
(BRET reads energy transfer from a luciferase to a nearby fluorophore.)

Test [1] has as its system ERK1/2 activation in HMDM. As to the kind of experiment: ERK1/2 phosphorylation assay (Alphascreen Surefire) in HMDM. It is filed as cell-based, human. Conditions: for inhibition of C5a-induced ERK1/2 activation in HMDM: 30 min pre-incubation, then C5a 5 nM for 10 min; for direct ERK1/2 activation in HMDM: peptide alone. The method, then: FIG. 5 is a graph showing that P32 and P59 inhibit C5a-induced ERK1/2 activation in HMDM. pERK quantified by Surefire ERK1/2 kit. Data is normalised to C5a 5 nM (100%) for each donor. Data are representative of at least three independent experiments HMDM donors performed in triplicate (n=3-5). Error bars represent SEM. **** P<0.0001 by one-way ANOVA followed by Dunnett's post hoc test.
ERK1/2 phosphorylation assays were performed using the Alphascreen Surefire ERK1/2 kit (Perkin Elmer) as per manufacturers' instructions. Briefly, HMDM were seeded at 50 000 cells/well in 96-well tissue culture plates (Nunc, Waltham, Mass., USA) and serum starved overnight. Ligands were prepared in serum-free media. P32 and P59 were pre-incubated with cells for 30 min at 37° C. and 5% CO2, prior to the addition of C5a (5 nM) for 10 min at 37° C. and 5% CO2. Media was then removed and cells lysed with lysis buffer for 10 min on a shaker, 4 μL of lysate was transferred to a white 384-well proxiplate plate (Perkin Elmer) and incubated in the presence of 7 μL of reaction mix. The plate was sealed with TopSeal-A, incubated for 2 h at 37° C. and measured on an M1000Pro plate reader (Tecan, Mannedorf, Switzerland).
A general note: Alpha assays give light when donor and acceptor beads are brought close together.

In a further test the target is T2, C5a1 (Homo sapiens, UniProt P21730).
T2 sequence (P21730 1-350): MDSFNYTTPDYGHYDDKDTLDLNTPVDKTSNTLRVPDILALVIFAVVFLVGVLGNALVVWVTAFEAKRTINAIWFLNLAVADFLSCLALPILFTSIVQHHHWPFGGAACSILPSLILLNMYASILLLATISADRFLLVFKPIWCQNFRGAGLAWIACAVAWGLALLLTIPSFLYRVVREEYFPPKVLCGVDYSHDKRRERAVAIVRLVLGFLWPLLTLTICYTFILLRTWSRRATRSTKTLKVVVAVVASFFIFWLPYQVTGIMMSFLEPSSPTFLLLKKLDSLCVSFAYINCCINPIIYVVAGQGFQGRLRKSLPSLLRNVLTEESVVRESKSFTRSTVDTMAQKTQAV
The test is described as follows: BRET β-arrestin 2 recruitment by C5a1 in HEK293 cells. The format is cell-based. More on the design: expressed in transfected cells; host or cells: HEK293 (transient). The conditions noted are these: P32 or P59 100 μM. The procedure:
as §1, with “The BRET ratio was calculated by subtracting the ratio of 520-550 nm emission over the 460-490 nm emission for a cell sample containing the C5a1-Rluc8 or β-arrestin 2-Rluc8 construct from a cell sample containing both the C5a1-Rluc8 and β-arrestin 2-Venus or C5a2-Venus and β-arrestin 2-Rluc8 or C5a1-Rluc8 and C5a2-Venus constructs. Peptides were also tested for ligand-induced β-arrestin 2 recruitment at 100 μM using DiscoveRx PathHunter kits for human C5a1 and C5a2 (DiscoveRx Corporation. Birmingham, UK), according to the manufacturer's instructions.” left out

The next test deals with T3, C5aR1 (Homo sapiens, UniProt P21730).
T3 sequence (P21730 1-350): T2 sequence (P21730 1-350)
As to the kind of experiment: 125I-C5a binding to C5aR1 membranes. The conditions noted are these: up to a maximum concentration of 500 μM.

Test [2] deals with C5a-induced neutrophil mobilization. The test is described as follows: C5a-induced neutrophil mobilization in C5aR2-/- mice. Conditions: P32 3 mg/kg i.v. with C5a 50 μg/kg, 30 min. It is filed as in vivo, C5aR2-/- mice on a C57BL/6J background. The method, then:
(§2) FIG. 6 is a panel of graphs showing that P32 inhibits C5a-induced neutrophil mobilization in vivo in a C5aR2 dependent manner. Neutrophil mobilization quantified 30 min after i.v. injection of PBS, C5a (50 μg/kg), or P32 (3 mg/kg) with and without C5a present into the femoral vein of either C57BL/6J wild-type (6A) or C5aR2^−/− (6B) on a C57BL/6J background mice. Total circulating leukocyte counts were determined from blood smears and total white blood cell counts using a hemocytometer. Data are representative from at least 6 mice per treatment group and blood smears in triplicate (n=6). Error bars represent SEM. * P<0.05, *** P<0.001 by one-way ANOVA followed by Dunnett's post hoc test
(§3) To further explore the selectivity of the ligands P32 was tested in a mouse model of C5a-induced neutrophil mobilization (FIG. 6). […] Assuming a mouse blood volume of 2 mL for a 25 g mouse, a concentration of 3 mg/kg would result in Cmax blood concentrations of ˜50 uM, a dose within the active range of this compound from our in vitro studies

The test system is the same in test [3]. As to the kind of experiment: C5a-induced neutrophil mobilization in wild-type mice. The format is in vivo, C57BL/6J wild-type mice. Conditions: P32 3 mg/kg i.v. with C5a 50 μg/kg, 30 min. The method, then: as §2, §3

C5a2, sequence (Q9P296 whole entry): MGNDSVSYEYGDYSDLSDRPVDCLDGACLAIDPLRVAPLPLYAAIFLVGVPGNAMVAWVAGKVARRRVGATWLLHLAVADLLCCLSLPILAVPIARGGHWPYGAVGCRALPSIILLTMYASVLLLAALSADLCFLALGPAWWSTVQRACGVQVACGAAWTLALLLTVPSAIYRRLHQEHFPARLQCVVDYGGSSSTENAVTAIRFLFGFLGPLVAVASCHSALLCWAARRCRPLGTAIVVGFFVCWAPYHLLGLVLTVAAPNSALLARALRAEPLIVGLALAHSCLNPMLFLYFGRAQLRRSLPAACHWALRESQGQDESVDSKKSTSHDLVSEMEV
C5a2, sequence (P32121 whole entry partner): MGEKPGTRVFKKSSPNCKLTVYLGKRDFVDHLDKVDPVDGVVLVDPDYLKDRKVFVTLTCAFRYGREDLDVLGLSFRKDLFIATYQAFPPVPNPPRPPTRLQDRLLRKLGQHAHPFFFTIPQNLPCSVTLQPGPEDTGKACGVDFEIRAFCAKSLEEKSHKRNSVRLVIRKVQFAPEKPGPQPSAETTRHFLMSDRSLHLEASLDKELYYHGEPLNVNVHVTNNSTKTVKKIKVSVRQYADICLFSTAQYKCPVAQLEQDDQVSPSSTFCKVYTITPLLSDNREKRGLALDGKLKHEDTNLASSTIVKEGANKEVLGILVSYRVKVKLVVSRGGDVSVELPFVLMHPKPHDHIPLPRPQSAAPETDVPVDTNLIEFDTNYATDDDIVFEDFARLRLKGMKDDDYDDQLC
T1 sequence (Q9P296 whole entry, one chain of several): as the sequence (Q9P296 whole entry) above

By EC50 is commonly meant the concentration needed to bring the measured effect to its halfway point. As for “Ac-LIRLWR-OH [Peptide P59, Ac-LIRLWR-OH]”, on C5a2, the “C5a2-β-arrestin 2 BRET Recruitment (% of C5a)” value is 52.9 % of C5a, the “efficacy for β-arrestin 2 recruitment relative to affinity for C5a2” value is around 6 fold, the EC50 is 7.6 ± 0.6 µM and the “type of activity for recruitment of β-arrestin 2 via C5a2” value is “partial agonists”. In addition, at C5a1-C5a2 heteromer, the “up-regulation of heteromer formation between C5a1-C5a2” value is recorded as “neither P32 or P59 were able to up-regulate heteromer formation”. In test [1], the “inhibition of C5a-induced ERK1/2 activation in HMDM” value is listed as “significantly inhibit” and the “direct ERK1/2 activation in HMDM” value was “Neither P32 or P59 could induce ERK1/2 activation alone”. For the same substance, the “β-arrestin 2 recruitment via C5a1” value at C5a1 is “Neither, P32 or P59 could recruit β-arrestin 2 via C5a1”. Also, the “inhibition of 125I-C5a binding to C5aR1 membranes, full concentration response” value at C5aR1 is on record as “dose-dependently inhibited”.

“Ac-RHYPYWR-OH [Peptide P32, Ac-RHYPYWR-OH]”: at C5a2, the “C5a2-β-arrestin 2 BRET Recruitment (% of C5a)” value is on record as 28.8 % of C5a, the “efficacy for β-arrestin 2 recruitment relative to affinity for C5a2” value is given as around 37 fold, the EC50 is 5.9 ± 3.4 µM and the “type of activity for recruitment of β-arrestin 2 via C5a2” value is reported as “partial agonists”. Further, the “inhibition of C5a-induced neutrophil mobilization” value in test [2] is “attenuated”. The “up-regulation of heteromer formation between C5a1-C5a2” value on C5a1-C5a2 heteromer is “neither P32 or P59 were able to up-regulate heteromer formation”. Also, in test [1], the “inhibition of C5a-induced ERK1/2 activation in HMDM” value is reported as “significantly inhibit” and the “direct ERK1/2 activation in HMDM” value is listed as “Neither P32 or P59 could induce ERK1/2 activation alone”. Moreover, the “β-arrestin 2 recruitment via C5a1” value at C5a1 is “Neither, P32 or P59 could recruit β-arrestin 2 via C5a1”. The “inhibition of 125I-C5a binding to C5aR1 membranes, full concentration response” value at C5aR1 was “dose-dependently inhibited”. Moreover, the “inhibition of C5a-induced neutrophil mobilization” value in test [3] is listed as “significantly inhibit”.
